Experimental findings from patent US10864182B2, “Treatment of fragile X syndrome” (Healx Limited, priority 2018, dated 2020) are described below.

What all share (type): in vivo
Test [1] has as its system Fmr1 KO2 mice. Briefly: Nesting. As to conditions: 5 mg/kg by subcutaneous osmotic minipump, 15 days, listed as sulindac. The text has this:
(§1) Fmr1 knockout 2 (Fmr1 KO2) mice were generated by deletion of the promoter and first exon of Fmr1. The Fmr1 KO2 it is both, protein and mRNA null. In this study we used Fmr1 KO2 and wild-type (WT) littermates generated on a C57BL/6J background and repeatedly backcrossed onto a C57BL/6J background for more than eight generations.
(§2) There were four treatment groups per compound in the study with 10 male mice used per treatment group (all at 8 weeks of age): Group 1: Fmr1 KO2 mice treated with vehicle (Fmr1 KO2-V), Group 2: wild-type littermate mice treated with vehicle (WT-V), Group 3: Fmr1 KO2 mice treated with sulindac (Fmr1 KO-Sulindac) and Group 4: wild-type littermate mice treated with sulindac (WT-Sulindac)
(§3) Sulindac: 5 mg/kg by osmotic minipumps (ALZET Osmotic Pumps Cupertino, Calif., USA) implanted subcutaneously for 15 days delivery.
(§4) For experiments, all mice were tested once in the same apparatus. […] We assessed weight loss, fur loss, walking, eyes open, eye discharges and general behavior.
The test was performed in individual cages. […] Mice were placed individually into the nesting cages 1 hr. before the dark phase, and the results were assessed the next morning. Nest building was scored on a 5 point scale. […]
(§5) Data were analyzed by two-way analysis of variance (ANOVA) followed by post-test comparisons where appropriate using Tukey's Multiple Comparison Test. […]

For test [2], the system named is Fmr1 KO2 mice. Briefly: Open field (hyperactivity). The settings on record: 5 mg/kg by subcutaneous osmotic minipump, 15 days chronic treatment, 3 min observation.
Description: as §1
There were four treatment groups per compound in the study with 10 male mice used per treatment group (all at 8 weeks of age): Group 1: Fmr1 KO2 mice treated with vehicle (Fmr1 KO2-V), Group 2: wild-type littermate mice treated with vehicle (WT-V), Group 3: Fmr1 KO2 mice treated with sulindac (Fmr1 KO-Sulindac) and Group 4: wild-type littermate mice treated with sulindac (WT-Sulindac) […]
as §4
The open-field apparatus was used to test hyperactivity. […] The number of squares entered by the whole body (locomotor activity) was counted. The movement of the mouse around the field was recorded with a video tracking device for 3 min (version NT4.0, Viewpoint).
as §5

Test [3] deals with Fmr1 KO2 mice. The test can be described thus: Contextual fear conditioning. As to conditions: 5 mg/kg by subcutaneous osmotic minipump, 15 days, KO not different from WT.
Description: as §1, §2, §3
For experiments, all mice were tested once in the same apparatus. Prior to testing, mice were placed in the apparatus for some minutes before the experiment. The apparatus was cleaned with moist and dry tissues before testing each mouse. […] We assessed weight loss, fur loss, walking, eyes open, eye discharges and general behavior. […]
as §5

For test [4], the system named is Fmr1 KO2 mice. The test can be described thus: Three-chambered sociability task (social interaction). The settings on record: 5 mg/kg by subcutaneous osmotic minipump, 15 days.
Description: as §1, §2, §3, §4
In the three-chambered sociability task, a subject mouse was evaluated for its exploration of a novel social stimulus (novel mouse). […] The time spent exploring the novel mice was scored as exploration ratio.
as §5

Entries after “also recorded” stand apart in the source; their conditions may differ.

On to `CC1=C(CC(=O)O)c2cc(F)ccc2/C1=C\c1ccc([S+](C)[O-])cc1` (stereo not drawn) [Sulindac, (Z)-5-fluoro-2-methyl-1-[[p-(methylsulfinyl)phenyl]methylene]-1H-indene-3-acetic acid], for which the “nesting behavior (nest building score, 5 point scale)” value in the test on Fmr1 KO2 mice [1] is reported as “fully rescuing; also recorded: normalization in nesting behavior”. Besides, the “hyperactivity in open field (locomotor activity, number of squares entered)” value in the test with Fmr1 KO2 mice [2] is reported as “fully rescuing; also recorded: normalizes hyperactivity”. The “freezing in contextual memory test (learning and memory)” value is “ameliorates the Fmr1 KO deficit in learning and memory” with Fmr1 KO2 mice [3] (p=0.3968); “partially rescuing” in the test with Fmr1 KO2 mice [3] (p=0.3968, listed as sulindac). In addition, the “sociability (exploration index of the novel mouse)” value in the test on Fmr1 KO2 mice [4] is reported as “partially improved such impairment”; in the test with Fmr1 KO2 mice [4] (listed as sulindac), “partially rescuing”.
